According to paper PMC8119466, “A screen of FDA-approved drugs identifies inhibitors of protein tyrosine phosphatase 4A3 (PTP4A3 or PRL-3)” (Scientific Reports, 2021):
Structures can show the parent of a compound that is named as a salt. Where two headings read alike, the source gives them in different places.

Assays:
Format in all cases: biochemical
[1] = target: T1, recombinant PRL-3 (Homo sapiens, UniProt O75365); experiment: In vitro phosphatase assay (DiFMUP hydrolysis), PRL-3
T1 construct: 6xHis (N, cleaved yes); made in house; host or cells: E. coli One Shot BL21 Star
T1 sequence (O75365 whole entry): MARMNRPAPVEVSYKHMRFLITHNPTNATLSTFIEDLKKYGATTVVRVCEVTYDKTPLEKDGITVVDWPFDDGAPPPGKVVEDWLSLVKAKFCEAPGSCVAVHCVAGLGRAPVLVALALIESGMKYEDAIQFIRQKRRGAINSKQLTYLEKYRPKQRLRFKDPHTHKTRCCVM

[2] = target: T2, recombinant PRL-2 (Homo sapiens, UniProt Q12974); experiment: In vitro phosphatase assay (DiFMUP hydrolysis), PRL-2;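 note: PRL-2 activity read as DiFMUP hydrolysis after 20 min at room temperature with drug, enzyme first pre-reduced at 4 °C for 20 min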
T2 construct: 6xHis (N, cleaved yes); made in house; host or cells: E. coli One Shot BL21 Star
T2 sequence (Q12974 1-167): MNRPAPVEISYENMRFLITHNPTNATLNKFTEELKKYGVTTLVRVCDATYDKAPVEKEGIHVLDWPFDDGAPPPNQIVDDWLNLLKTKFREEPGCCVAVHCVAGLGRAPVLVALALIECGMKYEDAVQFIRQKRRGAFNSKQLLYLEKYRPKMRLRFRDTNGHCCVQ

[3] = target: T3, recombinant PRL-1 (Homo sapiens, UniProt Q93096); experiment: In vitro phosphatase assay (DiFMUP hydrolysis), PRL-1
T3 construct: 6xHis (N, cleaved yes); made in house; host or cells: E. coli One Shot BL21 Star
T3 sequence (Q93096 1-173): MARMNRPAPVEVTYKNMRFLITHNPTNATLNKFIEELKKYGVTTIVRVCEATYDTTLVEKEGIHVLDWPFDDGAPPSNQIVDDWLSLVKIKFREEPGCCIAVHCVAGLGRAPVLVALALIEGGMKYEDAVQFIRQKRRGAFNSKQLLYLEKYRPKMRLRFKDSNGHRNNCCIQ

[4] = FDA-approved drug screen, compared to DMSO
[5] = FDA-approved drug screen, activity compared to DMSO

| % Phosphatase Activity (compared to DMSO) PRL-3 [1, 4] [%] | % Phosphatase Activity (compared to DMSO) PRL-2 [2, 4] [%] | % Phosphatase Activity (compared to DMSO) PRL-1 [3, 4] [%] | Compound | also measured |
| --- | --- | --- | --- | --- |
| 80 | 132 | 102 | COc1ccc(-n2nc(C(N)=O)c3c2C(=O)N(c2ccc(N4CCCCC4=O)cc2)CC3)cc1 [Apixaban] | – |
| 92 | 120 | 110 | CS(=O)(=O)c1ccc(C2=C(c3ccccc3)C(=O)OC2)cc1 [Rofecoxib] | – |
| – | – | – | N#C[C@@H]1CCCN1C(=O)CNC12CC3CC(CC(O)(C3)C1)C2 [Vildagliptin (LAF-237)] | % Phosphatase Activity (compared to DMSO) PRL-3 [1, 5]: 94%; % Phosphatase Activity (compared to DMSO) PRL-2 [2, 5]: 136%; % Phosphatase Activity (compared to DMSO) PRL-1 [3, 5]: 99% |
| 86 | 113 | 105 | O=C1C2CC3CC1CC(O)(C3)C2 [Idramantone] | – |
| 81 | 108 | 89 | Oc1c(I)cc(I)c2cccnc12 [Diiodohydroxyquinoline] | – |
| – | – | – | CCCC(=O)[O-].[Na+] [Sodium butyrate] | % Phosphatase Activity (compared to DMSO) PRL-3 [1, 5]: 89%; % Phosphatase Activity (compared to DMSO) PRL-2 [2, 5]: 90%; % Phosphatase Activity (compared to DMSO) PRL-1 [3, 5]: 97% |
| 88 | 120 | 114 | OCCN1C[C@H](O)[C@@H](O)[C@H](O)[C@H]1CO [Miglitol] | – |
| 95 | 116 | 113 | N=C(N)c1ccc(OCCCCCOc2ccc(C(=N)N)cc2)cc1 [Pentamidine] | – |
| – | – | – | Cc1ccc(C(=O)C(C)CN2CCCCC2)cc1.Cl (stereo not drawn) [Tolperisone HCl] | % Phosphatase Activity (compared to DMSO) PRL-3 [1, 5]: 71%; % Phosphatase Activity (compared to DMSO) PRL-2 [2, 5]: 108%; % Phosphatase Activity (compared to DMSO) PRL-1 [3, 5]: 91% |
| 114 | 102 | 99 | CN1CCN(c2cc3c(cc2F)c(=O)c(C(=O)O)cn3-c2ccc(F)cc2)CC1 [Difloxacin HCl] | – |
| 6 | 80 | 52 | Oc1c(Cl)cc(Cl)cc1Sc1cc(Cl)cc(Cl)c1O [Bithionol, reference compound] | IC50 ([1]; 2.5 µM protein, DiFMUP at KM, read-out: Calculated IC50, PRL-3 phosphatase activity): 33 ± 2 µM; IC50 ([2]; 2.5 µM protein, DiFMUP at KM, read-out: Calculated IC50, PRL-2 phosphatase activity): 115 ± 34 µM; IC50 ([3]; 2.5 µM protein, DiFMUP at KM, read-out: Calculated IC50, PRL-1 phosphatase activity): 79 ± 25 µM |
| 110 | 121 | 123 | CCn1cc(C(=O)O)c(=O)c2cc(F)c(N3CCNC(C)C3)c(F)c21 (stereo not drawn) [Lomefloxacin HCl] | – |
| – | – | – | CNCC[C@H](Oc1cccc2ccccc12)c1cccs1 [Duloxetine HCl] | % Phosphatase Activity (compared to DMSO) PRL-3 [1]: 89%; % Phosphatase Activity (compared to DMSO) PRL-2 [2]: 107%; % Phosphatase Activity (compared to DMSO) PRL-1 [3]: 97% |
| – | – | – | CNC(=O)c1cc(Oc2ccc(NC(=O)Nc3ccc(Cl)c(C(F)(F)F)c3)cc2)ccn1 [Sorafenib Tosylate] | % Phosphatase Activity (compared to DMSO) PRL-3 [1, 5]: 73%; % Phosphatase Activity (compared to DMSO) PRL-2 [2, 5]: 93%; % Phosphatase Activity (compared to DMSO) PRL-1 [3, 5]: 85% |
| 84 | 95 | 87 | Nc1cccc2c1CN(C1CCC(=O)NC1=O)C2=O (stereo not drawn) [Lenalidomide (CC-5013)] | – |
| 94 | 92 | 68 | C[C@@](Cc1ccc(O)c(O)c1)(NN)C(=O)O [Carbidopa] | – |
| 92 | 88 | 82 | O=C(O)C[C@H](O)C[C@H](O)/C=C/c1c(C2CC2)nc2ccccc2c1-c1ccc(F)cc1 [Pitavastatin Calcium] | – |
| 91 | 94 | 91 | NNC(=O)c1ccncc1 [Isoniazid] | – |
| 118 | 112 | 97 | [H]/N=C(\N/C(=N/[H])NCCCCCCNC(=N)NC(=N)Nc1ccc(Cl)cc1)Nc1ccc(Cl)cc1 [Chlorhexidine HCl] | – |
| – | – | – | CNC[C@H](O)c1ccc(O)c(O)c1 [Epinephrine HCl] | % Phosphatase Activity (compared to DMSO) PRL-3 [1]: 90%; % Phosphatase Activity (compared to DMSO) PRL-2 [2]: 132%; % Phosphatase Activity (compared to DMSO) PRL-1 [3]: 98% |
| 85 | 100 | 125 | COc1c(C)c2c(c(O)c1C/C=C(\C)CCC(=O)O)C(=O)OC2 [Mycophenolic acid] | – |
| – | – | – | C[C@@H]1CN(c2c(F)c(N)c3c(=O)c(C(=O)O)cn(C4CC4)c3c2F)C[C@H](C)N1 [Sparfloxacin] | % Phosphatase Activity (compared to DMSO) PRL-3 [1, 5]: 121%; % Phosphatase Activity (compared to DMSO) PRL-2 [2, 5]: 98%; % Phosphatase Activity (compared to DMSO) PRL-1 [3, 5]: 87% |
| 82 | 100 | 98 | CC(C)c1cc(C(=O)N2Cc3ccc(CN4CCN(C)CC4)cc3C2)c(O)cc1O [AT13387] | – |
| 875 | 1210 | 1180 | C#CCC(Cc1cnc2nc(N)nc(N)c2n1)c1ccc(C(=O)N[C@@H](CCC(=O)O)C(=O)O)cc1 (stereo partly drawn) [Pralatrexate] | – |
| – | – | – | NC1=NCC2c3ccccc3Cc3ccccc3N12 (stereo not drawn) [Epinastine HCl] | % Phosphatase Activity (compared to DMSO) PRL-3 [1]: 80%; % Phosphatase Activity (compared to DMSO) PRL-2 [2]: 109%; % Phosphatase Activity (compared to DMSO) PRL-1 [3]: 96% |
| 87 | 101 | 107 | O=C(Nc1c(Cl)cncc1Cl)c1ccc(OC(F)F)c(OCC2CC2)c1 [Roflumilast] | – |
| – | – | – | CN1CCC[C@H]1c1cccnc1.O=C(O)C(O)C(O)C(=O)O.O=C(O)C(O)C(O)C(=O)O [Nicotine Ditartrate] | % Phosphatase Activity (compared to DMSO) PRL-3 [1]: 96%; % Phosphatase Activity (compared to DMSO) PRL-2 [2]: 96%; % Phosphatase Activity (compared to DMSO) PRL-1 [3]: 95% |
| – | – | – | CN[C@@H]1[C@H](O)[C@H](NC)[C@H]2O[C@@]3(O)C(=O)C[C@@H](C)O[C@H]3O[C@@H]2[C@H]1O.Cl.Cl [Spectinomycin HCl] | % Phosphatase Activity (compared to DMSO) PRL-3 [1, 5]: 77%; % Phosphatase Activity (compared to DMSO) PRL-2 [2, 5]: 110%; % Phosphatase Activity (compared to DMSO) PRL-1 [3, 5]: 109% |
| – | – | – | COc1cc(NS(=O)(=O)c2ccc(N)cc2)nc(OC)n1 [Sulphadimethoxine] | % Phosphatase Activity (compared to DMSO) PRL-3 [1, 5]: 83%; % Phosphatase Activity (compared to DMSO) PRL-2 [2, 5]: 94%; % Phosphatase Activity (compared to DMSO) PRL-1 [3, 5]: 92% |

| Compound | % Phosphatase Activity (compared to DMSO) PRL-3 [1, 4] [%] | % Phosphatase Activity (compared to DMSO) PRL-2 [2, 4] [%] | % Phosphatase Activity (compared to DMSO) PRL-1 [3, 4] [%] | also measured |
| --- | --- | --- | --- | --- |
| CCCC(=O)OCOC(=O)C1=C(C)NC(C)=C(C(=O)OC)C1c1cccc(Cl)c1Cl (stereo not drawn) [Clevidipine Butyrate] | 262 | 437 | 473 | – |
| CC(C)(C)NCC(O)c1ccc(O)c(CO)c1.CC(C)(C)NCC(O)c1ccc(O)c(CO)c1.O=S(=O)(O)O (stereo not drawn) [Salbutamol Sulfate] | 88 | 90 | 94 | – |
| CC(C)(C)NCC(O)COc1cccc2c1CCC(=O)N2 (stereo not drawn) [Carteolol HCl] | 71 | 87 | 100 | – |
| CC1(C)S[C@@H]2[C@H](NC(=O)[C@H](NC(=O)N3CCN(S(C)(=O)=O)C3=O)c3ccccc3)C(=O)N2[C@H]1C(=O)O [Mezlocillin Sodium] | 67 | 91 | 92 | – |
| CCCCc1nc2cc(/C=C/C(=O)NO)ccc2n1CCN(CC)CC [Pracinostat (SB939)] | 80 | 87 | 96 | – |
| CCN(CC)CCOc1ccc(C(=C(Cl)c2ccccc2)c2ccccc2)cc1 [Clomifene citrate] | 96 | 128 | 120 | – |
| Cc1cccc(CN2CCN(C(c3ccccc3)c3ccc(Cl)cc3)CC2)c1.Cl.Cl (stereo not drawn) [Meclizine 2HCl] | 96 | 112 | 103 | – |
| C#C[C@]1(O)CC[C@H]2[C@@H]3CCC4=CCCC[C@@H]4[C@H]3C(=C)C[C@@]21CC [Desogestrel] | 84 | 109 | 104 | – |
| 17-Hydroxyprogesterone | 86 | 77 | 86 | – |
| C=C1c2cccc(O)c2C(=O)C2=C(O)[C@]3(O)C(=O)C(C(N)=O)=C(O)[C@@H](N(C)C)[C@@H]3[C@@H](O)[C@H]12 [Methacycline HCl] | 83 | 65 | 82 | – |
